Assay results as given in paper PMC5547389, “Structure-activity relationships and molecular docking studies of chromene and chromene based azo chromophores: A novel series of potent antimicrobial and anticancer agents” (EXCLI Journal, 2017).
Values after ≈ are worked out from the molar mass of the structure shown.

Tested on: Escherichia coli (RCMB 010052)
Test: Well diffusion assay (inhibition zone)
Assay type: cell-based
Conditions: RCMB010052, 5 mg/mL in DMSO, Gm-ve, read-out: Inhibition Zone (IZ) diameter, E.C
In short: (§1)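 Agar well diffusion with 10 mm wells, nutrient agar for bacteria and malt extract agar for fungi. Plates were incubated 24-48 h at 37 °C for bacteria or 28 °C for fungi. Inhibition zone diameters were measured in mm, in triplicate.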

First: COc1ccc(N=Nc2cc3c(cc2O)OC(N)=C(C#N)C3c2ccc(F)cc2)cc1 (stereo not drawn) [13b, 2-Amino-4-(4-fluoro-phenyl)-7-hydroxy-6-(4-methoxy-phenylazo)-4H-chromene-3-carbonitrile]
Second: N#CC1=C(N)Oc2c(ccc3c(N)cccc23)C1c1ccc(F)cc1 (stereo not drawn) [7c]
The zone of inhibition at 5000 µg/mL of the first is lower: 17.8 mm for the first, 18.6 mm for the second.

`N#CC1=C(N)Oc2c(N)cc3ccccc3c2C1c1ccc(F)cc1` (stereo not drawn) [4a, 3,5-diamino-1-(4-fluorophenyl)-1H-benzo[f]chromene-2-carbonitrile] gave a zone of inhibition at 5000 µg/mL of 11.9 mm.

Tested on: Aspergillus fumigatus (RCMB 02568)
Test: Well diffusion assay (inhibition zone)
Assay type: cell-based
Conditions: RCMB02568, 5 mg/mL in DMSO, fungi, read-out: Inhibition Zone (IZ) diameter, A.F
In short: as §1

First: COc1ccc(N=Nc2cc3c(cc2O)OC(N)=C(C#N)C3c2ccc(F)cc2)cc1 (stereo not drawn) [13b, 2-Amino-4-(4-fluoro-phenyl)-7-hydroxy-6-(4-methoxy-phenylazo)-4H-chromene-3-carbonitrile]
Second: N#CC1=C(N)Oc2c(ccc3c(N)cccc23)C1c1ccc(F)cc1 (stereo not drawn) [7c]
The zone of inhibition at 5000 µg/mL of the first is lower: 16.3 mm for the first, 18.2 mm for the second.

Work on `N#CC1=C(N)Oc2c(N)cc3ccccc3c2C1c1ccc(F)cc1` (stereo not drawn) [4a, 3,5-diamino-1-(4-fluorophenyl)-1H-benzo[f]chromene-2-carbonitrile] yielded a zone of inhibition at 5000 µg/mL of 12.3 mm.

Tested on: Syncephalastrum racemosum (RCMB 05922)
Test: Well diffusion assay (inhibition zone)
Assay type: cell-based
Conditions: RCMB05922, 5 mg/mL in DMSO, fungi, read-out: Inhibition Zone (IZ) diameter, S.R
In short: as §1

Going from `COc1ccc(N=Nc2cc3c(cc2O)OC(N)=C(C#N)C3c2ccc(F)cc2)cc1` (stereo not drawn) [13b, 2-Amino-4-(4-fluoro-phenyl)-7-hydroxy-6-(4-methoxy-phenylazo)-4H-chromene-3-carbonitrile] to `N#CC1=C(N)Oc2c(ccc3c(N)cccc23)C1c1ccc(F)cc1` (stereo not drawn) [7c], the zone of inhibition at 5000 µg/mL rises from 15.2 mm to 16.2 mm.

In the case of `N#CC1=C(N)Oc2c(N)cc3ccccc3c2C1c1ccc(F)cc1` (stereo not drawn) [4a, 3,5-diamino-1-(4-fluorophenyl)-1H-benzo[f]chromene-2-carbonitrile], the zone of inhibition at 5000 µg/mL is reported as 12.6 mm.

Tested on: Streptococcus pneumoniae (RCMB 010010)
Test: Well diffusion assay (inhibition zone)
Assay type: cell-based
Conditions: RCMB010010, 5 mg/mL in DMSO, Gm+ve, read-out: Inhibition Zone (IZ) diameter, S.P
In short: as §1

First: COc1ccc(N=Nc2cc3c(cc2O)OC(N)=C(C#N)C3c2ccc(F)cc2)cc1 (stereo not drawn) [13b, 2-Amino-4-(4-fluoro-phenyl)-7-hydroxy-6-(4-methoxy-phenylazo)-4H-chromene-3-carbonitrile]
Second: N#CC1=C(N)Oc2c(ccc3c(N)cccc23)C1c1ccc(F)cc1 (stereo not drawn) [7c]
The zone of inhibition at 5000 µg/mL of the first is lower: 17.5 mm for the first, 17.8 mm for the second.

For `N#CC1=C(N)Oc2c(N)cc3ccccc3c2C1c1ccc(F)cc1` (stereo not drawn) [4a, 3,5-diamino-1-(4-fluorophenyl)-1H-benzo[f]chromene-2-carbonitrile], the zone of inhibition at 5000 µg/mL was 16.9 mm.

Tested on: Bacillus subtilis (RCMB 010067)
Test: Well diffusion assay (inhibition zone)
Assay type: cell-based
Conditions: RCMB010067, 5 mg/mL in DMSO, Gm+ve, read-out: Inhibition Zone (IZ) diameter, B.S
In short: as §1

First: COc1ccc(N=Nc2cc3c(cc2O)OC(N)=C(C#N)C3c2ccc(F)cc2)cc1 (stereo not drawn) [13b, 2-Amino-4-(4-fluoro-phenyl)-7-hydroxy-6-(4-methoxy-phenylazo)-4H-chromene-3-carbonitrile]
Second: N#CC1=C(N)Oc2c(ccc3c(N)cccc23)C1c1ccc(F)cc1 (stereo not drawn) [7c]
The zone of inhibition at 5000 µg/mL of the first is lower: 19.7 mm for the first, 21.3 mm for the second.

`N#CC1=C(N)Oc2c(N)cc3ccccc3c2C1c1ccc(F)cc1` (stereo not drawn) [4a, 3,5-diamino-1-(4-fluorophenyl)-1H-benzo[f]chromene-2-carbonitrile] showed a zone of inhibition at 5000 µg/mL of 18.2 mm.

Tested on: Geotricum candidum (RCMB 05097)
Test: Well diffusion assay (inhibition zone)
Assay type: cell-based
Conditions: 5 mg/mL in DMSO; fungi; read-out: Inhibition Zone (IZ) diameter, G.C
In short: as §1

Compared with `COc1ccc(N=Nc2cc3c(cc2O)OC(N)=C(C#N)C3c2ccc(F)cc2)cc1` (stereo not drawn) [13b, 2-Amino-4-(4-fluoro-phenyl)-7-hydroxy-6-(4-methoxy-phenylazo)-4H-chromene-3-carbonitrile], `N#CC1=C(N)Oc2c(ccc3c(N)cccc23)C1c1ccc(F)cc1` (stereo not drawn) [7c] is higher in zone of inhibition at 5000 µg/mL: 17.3 mm for the first, 20.1 mm for the second.

Tested on: not given
Test: not given
Conditions: not given

First: COc1ccc(N=Nc2cc3c(cc2O)OC(N)=C(C#N)C3c2ccc(F)cc2)cc1 (stereo not drawn) [13b, 2-Amino-4-(4-fluoro-phenyl)-7-hydroxy-6-(4-methoxy-phenylazo)-4H-chromene-3-carbonitrile]
Second: N#CC1=C(N)Oc2c(N)cc3ccccc3c2C1c1ccc(F)cc1 (stereo not drawn) [4a, 3,5-diamino-1-(4-fluorophenyl)-1H-benzo[f]chromene-2-carbonitrile]
The melting point of the first is higher: 272 °C for the first, 193 °C for the second.

Tested on: Escherichia coli (RCMB 010052)
Test: MIC by serial dilution method
Assay type: cell-based
Conditions: RCMB010052, Gm-ve, read-out: Minimum inhibitory concentration, MIC, E.C
In short: (§2)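 Step one: agar diffusion well assay for antibacterial and antifungal activity. Step two: serial dilution to obtain […] minimum inhibitory concentrations, run alongside ampicillin, ciprofloxacin, gentamicin and amphotericin B as positive controls.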

Compared with `COc1ccc(N=Nc2cc3c(cc2O)OC(N)=C(C#N)C3c2ccc(F)cc2)cc1` (stereo not drawn) [13b, 2-Amino-4-(4-fluoro-phenyl)-7-hydroxy-6-(4-methoxy-phenylazo)-4H-chromene-3-carbonitrile], `N#CC1=C(N)Oc2c(N)cc3ccccc3c2C1c1ccc(F)cc1` (stereo not drawn) [4a, 3,5-diamino-1-(4-fluorophenyl)-1H-benzo[f]chromene-2-carbonitrile] is 2-fold lower in MIC: 15.6 µg/mL (≈ 37.5 µM) for the first, 7.81 µg/mL (≈ 23.6 µM) for the second.

Tested on: Aspergillus fumigatus (RCMB 02568)
Test: MIC by serial dilution method
Assay type: cell-based
Conditions: RCMB02568, fungi, read-out: Minimum inhibitory concentration, MIC, A.F
In short: as §2

Going from `COc1ccc(N=Nc2cc3c(cc2O)OC(N)=C(C#N)C3c2ccc(F)cc2)cc1` (stereo not drawn) [13b, 2-Amino-4-(4-fluoro-phenyl)-7-hydroxy-6-(4-methoxy-phenylazo)-4H-chromene-3-carbonitrile] to `N#CC1=C(N)Oc2c(N)cc3ccccc3c2C1c1ccc(F)cc1` (stereo not drawn) [4a, 3,5-diamino-1-(4-fluorophenyl)-1H-benzo[f]chromene-2-carbonitrile], the MIC falls from 62.5 µg/mL (≈ 150 µM) to 15.6 µg/mL (≈ 47.2 µM) (4-fold).

Tested on: Syncephalastrum racemosum (RCMB 05922)
Test: MIC by serial dilution method
Assay type: cell-based
Conditions: RCMB05922, fungi, read-out: Minimum inhibitory concentration, MIC, S.R
In short: as §2

Going from `COc1ccc(N=Nc2cc3c(cc2O)OC(N)=C(C#N)C3c2ccc(F)cc2)cc1` (stereo not drawn) [13b, 2-Amino-4-(4-fluoro-phenyl)-7-hydroxy-6-(4-methoxy-phenylazo)-4H-chromene-3-carbonitrile] to `N#CC1=C(N)Oc2c(N)cc3ccccc3c2C1c1ccc(F)cc1` (stereo not drawn) [4a, 3,5-diamino-1-(4-fluorophenyl)-1H-benzo[f]chromene-2-carbonitrile], the MIC falls from 62.5 µg/mL (≈ 150 µM) to 7.81 µg/mL (≈ 23.6 µM) (8-fold).

Tested on: Streptococcus pneumoniae (RCMB 010010)
Test: MIC by serial dilution method
Assay type: cell-based
Conditions: RCMB010010, Gm+ve, read-out: Minimum inhibitory concentration, MIC, S.P
In short: as §2

Going from `COc1ccc(N=Nc2cc3c(cc2O)OC(N)=C(C#N)C3c2ccc(F)cc2)cc1` (stereo not drawn) [13b, 2-Amino-4-(4-fluoro-phenyl)-7-hydroxy-6-(4-methoxy-phenylazo)-4H-chromene-3-carbonitrile] to `N#CC1=C(N)Oc2c(N)cc3ccccc3c2C1c1ccc(F)cc1` (stereo not drawn) [4a, 3,5-diamino-1-(4-fluorophenyl)-1H-benzo[f]chromene-2-carbonitrile], the MIC falls from 31.2 µg/mL (≈ 75 µM) to 15.6 µg/mL (≈ 47.2 µM) (2-fold).

Tested on: Bacillus subtilis (RCMB 010067)
Test: MIC by serial dilution method
Assay type: cell-based
Conditions: RCMB010067, Gm+ve, read-out: Minimum inhibitory concentration, MIC, B.S
In short: as §2

`COc1ccc(N=Nc2cc3c(cc2O)OC(N)=C(C#N)C3c2ccc(F)cc2)cc1` (stereo not drawn) [13b, 2-Amino-4-(4-fluoro-phenyl)-7-hydroxy-6-(4-methoxy-phenylazo)-4H-chromene-3-carbonitrile] and `N#CC1=C(N)Oc2c(N)cc3ccccc3c2C1c1ccc(F)cc1` (stereo not drawn) [4a, 3,5-diamino-1-(4-fluorophenyl)-1H-benzo[f]chromene-2-carbonitrile] are the same in MIC: 3.9 µg/mL (≈ 9.37 µM) for the first, 3.9 µg/mL (≈ 11.8 µM) for the second.

Tested on: Geotricum candidum (RCMB 05097)
Test: MIC by serial dilution method
Assay type: cell-based
Conditions: fungi; read-out: Minimum inhibitory concentration, MIC, G.C
In short: as §2

Compound `COc1ccc(N=Nc2cc3c(cc2O)OC(N)=C(C#N)C3c2ccc(F)cc2)cc1` (stereo not drawn) [13b, 2-Amino-4-(4-fluoro-phenyl)-7-hydroxy-6-(4-methoxy-phenylazo)-4H-chromene-3-carbonitrile] has an MIC of 31.2 µg/mL (≈ 74.9 µM).

Target: T1, DNA gyrase from Escherichia coli (Escherichia coli, UniProt P0AES4+P0AES6)
T1 construct: purchased Inspiral is Ltd (Norwich, United Kingdom)
T1 sequence (P0AES4 whole entry, one chain of several): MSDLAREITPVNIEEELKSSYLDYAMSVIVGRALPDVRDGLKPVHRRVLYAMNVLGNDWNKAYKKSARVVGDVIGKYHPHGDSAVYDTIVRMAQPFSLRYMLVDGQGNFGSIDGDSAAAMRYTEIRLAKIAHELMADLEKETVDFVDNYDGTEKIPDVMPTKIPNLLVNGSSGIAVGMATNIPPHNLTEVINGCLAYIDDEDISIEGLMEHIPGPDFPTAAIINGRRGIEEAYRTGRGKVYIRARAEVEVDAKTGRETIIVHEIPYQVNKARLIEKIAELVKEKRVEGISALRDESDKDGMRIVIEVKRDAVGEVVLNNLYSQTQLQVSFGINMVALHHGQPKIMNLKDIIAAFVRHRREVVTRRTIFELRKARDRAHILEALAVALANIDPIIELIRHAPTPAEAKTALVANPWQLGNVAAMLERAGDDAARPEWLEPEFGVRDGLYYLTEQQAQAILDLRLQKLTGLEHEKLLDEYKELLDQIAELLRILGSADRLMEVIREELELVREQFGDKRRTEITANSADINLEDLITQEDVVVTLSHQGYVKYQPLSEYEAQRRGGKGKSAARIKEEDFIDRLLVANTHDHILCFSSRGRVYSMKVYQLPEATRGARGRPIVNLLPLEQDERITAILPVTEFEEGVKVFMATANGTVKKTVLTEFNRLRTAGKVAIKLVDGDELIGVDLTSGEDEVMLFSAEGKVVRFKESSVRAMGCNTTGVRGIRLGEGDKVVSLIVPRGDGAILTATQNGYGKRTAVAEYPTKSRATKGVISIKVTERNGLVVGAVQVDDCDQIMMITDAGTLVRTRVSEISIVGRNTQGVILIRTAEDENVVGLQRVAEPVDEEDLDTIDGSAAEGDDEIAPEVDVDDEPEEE
Test: In vitro inhibitory activity screening of E. coli DNA gyrase
Assay type: biochemical
Conditions: 10 μM of compound; read-out: DNA Gyrase Residual activity RA (10 μM)
Experimental: Gyrase B and ParE monomers have only modest ATPase activity which is enhanced in the case of the holo enzymes and stimulated further by DNA. The phosphate released following conversion of ATP into ADP can be detected by the addition of malachite green solution and measured by monitoring the increase in absorbance at 600 nm. Topoisomerases were purchased from Inspiral is Ltd (Norwich, United Kingdom). For the Escherichia coli DNA gyrase ATPase assay, the final assay composition was 10 nM DNA gyrase (a complex of two GyrA and two GyrB subunits, the A2B2 complex) 3 mM Tris, pH 7.5, 24 mM KCl, 2 mM MgCl2, 6.5 % (w/v) glycerol, 0.01 mg/ml bovine serum albumin (BSA), 2 mM DTT (dithiothreitol), 9 mM ATP, and 5 % DMSO solution containing the compounds). For E. coli topoisomerase IV ATPase assay, the final assay composition was 10 nM topoisomerase IV (a complex consisting of two ParC and two ParE subunits), 40 mM HEPES-KOH, pH 7.6, 100 mM Potassium Glutamate, 25 mM Magnesium Acetate, […] single-stranded DNA, 0.2 mg/ml BSA, 10 mM DTT, 0.5 mM ATP, and 5 % DMSO solution containing the compounds. The reactions were started by the addition of the ATP, and the reaction mixtures were allowed to incubate at 30 °C for 60 mins. Reactions were stopped by adding Malachite green solution (0.034 % malachite green, 10 mM ammonium molybdate, 1M HCl, 3.4 % Ethanol, 0.01 % Tween 20). Color was allowed to develop for 5 min, and the absorbance at 600 nm was measured spectrophotometrically. The half-maximum (50 %) inhibitory concentration (IC50) values were determined from the absorbance readings using no-compound and no-enzyme controls. The values reported are the averages of at least four independent experiments.
Based upon the antimicrobial screening data, target compounds 4a, 7c, and 13b were evaluated against DNA gyrase from Escherichia coli in the DNA supercoiling assay for studying their mechanism. The results are presented in Table 5(Tab. 5) as residual activities (RA is the percentage activity of the enzyme in the presence of 10 μM and 100 μM of compound).

Compared with `COc1ccc(N=Nc2cc3c(cc2O)OC(N)=C(C#N)C3c2ccc(F)cc2)cc1` (stereo not drawn) [13b, 2-Amino-4-(4-fluoro-phenyl)-7-hydroxy-6-(4-methoxy-phenylazo)-4H-chromene-3-carbonitrile], `N#CC1=C(N)Oc2c(ccc3c(N)cccc23)C1c1ccc(F)cc1` (stereo not drawn) [7c] is lower in remaining activity at 10 µM: 137% for the first, 125% for the second.

With `N#CC1=C(N)Oc2c(N)cc3ccccc3c2C1c1ccc(F)cc1` (stereo not drawn) [4a, 3,5-diamino-1-(4-fluorophenyl)-1H-benzo[f]chromene-2-carbonitrile] the remaining activity at 10 µM was 117%.

Same assay, conditions: read-out: DNA Gyrase Residual activity RA (100 μM)

Compared with `COc1ccc(N=Nc2cc3c(cc2O)OC(N)=C(C#N)C3c2ccc(F)cc2)cc1` (stereo not drawn) [13b, 2-Amino-4-(4-fluoro-phenyl)-7-hydroxy-6-(4-methoxy-phenylazo)-4H-chromene-3-carbonitrile], `N#CC1=C(N)Oc2c(ccc3c(N)cccc23)C1c1ccc(F)cc1` (stereo not drawn) [7c] is higher in remaining activity at 100 µM: 127% for the first, 128% for the second.

`N#CC1=C(N)Oc2c(N)cc3ccccc3c2C1c1ccc(F)cc1` (stereo not drawn) [4a, 3,5-diamino-1-(4-fluorophenyl)-1H-benzo[f]chromene-2-carbonitrile] showed a remaining activity at 100 µM of 114%.
